Laboratory results from patent US11477982B2, “2-amino-5-oxyalkyl-pyrimidine derivatives and their use for controlling undesired plant growth” (Bayer CropScience Aktiengesellschaft, priority 2017, dated 2022).

Assays:
Type in all cases: in vivo
[1] = tested on: SETVI: Setaria viridis; experiment: Post-emergence herbicidal effect
Summary of the method: (§1)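 Weeds grown from seed in sandy loam in the greenhouse were sprayed at the one-leaf stage, 2 to 3 weeks after sowing. Compounds formulated as WP or EC were applied as aqueous suspension or emulsion with 0.5% additive at 600 l/ha. Activity was scored visually after about 3 weeks versus untreated controls (100% = dead, 0% = as control).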

[2] = tested on: PHBPU: Ipomoea purpurea; experiment: Post-emergence herbicidal effect
Summary of the method: as §1

[3] = tested on: POLCO: Polygonum convolvulus; experiment: Post-emergence herbicidal effect
Summary of the method: as §1

[4] = tested on: ECHCG: Echinochloa crus-galli; experiment: Post-emergence herbicidal effect
Summary of the method: as §1

[5] = tested on: ALOMY: Alopecurus myosuroides; experiment: Post-emergence herbicidal effect
Summary of the method: as §1

[6] = tested on: ABUTH: Abutilon theophrasti; experiment: Post-emergence herbicidal effect
Summary of the method: as §1

[7] = tested on: LOLRI: Lolium rigidum; experiment: Post-emergence herbicidal effect
Summary of the method: as §1

[8] = tested on: HORMU: Hordeum murinum; experiment: Post-emergence herbicidal effect
Summary of the method: as §1

[9] = tested on: AMARE: Amaranthus retroflexus; experiment: Post-emergence herbicidal effect; details: dosage 320 g/ha
Summary of the method: as §1

[10] = tested on: MATIN: Matricaria inodora; experiment: Post-emergence herbicidal effect
Summary of the method: as §1

[11] = tested on: STEME: Stellaria media; experiment: Post-emergence herbicidal effect
Summary of the method: as §1

[12] = tested on: VIOTR: Viola tricolor; experiment: Post-emergence herbicidal effect
Summary of the method: as §1

[13] = tested on: VERPE: Veronica persica; experiment: Post-emergence herbicidal effect; details: dosage 320 g/ha
Summary of the method: as §1

[14] = tested on: SETVI: Setaria viridis; experiment: Pre-emergence herbicidal effect; details: pre-emergence
Summary of the method: (§2)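 Visual percent scoring against untreated pots after roughly 3 weeks in the greenhouse (100% = dead, 0% = no effect). Treatment was a pre-emergence soil-surface spray of WP or EC formulations in water plus 0.5% additive, 600 l/ha.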

[15] = tested on: AMARE: Amaranthus retroflexus; experiment: Pre-emergence herbicidal effect; details: pre-emergence
Summary of the method: as §2

[16] = tested on: AVEFA: Avena fatua; experiment: Pre-emergence herbicidal effect
Summary of the method: as §2

[17] = tested on: PHBPU: Ipomoea purpurea; experiment: Pre-emergence herbicidal effect
Summary of the method: as §2

[18] = tested on: POLCO: Polygonum convolvulus; experiment: Pre-emergence herbicidal effect
Summary of the method: as §2

[19] = tested on: MATIN: Matricaria inodora; experiment: Pre-emergence herbicidal effect; details: pre-emergence; dosage 320 g/ha
Summary of the method: as §2

[20] = tested on: ECHCG: Echinochloa crus-galli; experiment: Pre-emergence herbicidal effect; details: pre-emergence
Summary of the method: as §2

[21] = tested on: ALOMY: Alopecurus myosuroides; experiment: Pre-emergence herbicidal effect; details: pre-emergence
Summary of the method: as §2

[22] = tested on: STEME: Stellaria media; experiment: Pre-emergence herbicidal effect; details: pre-emergence; dosage 320 g/ha
Summary of the method: as §2

[23] = tested on: ABUTH: Abutilon theophrasti; experiment: Pre-emergence herbicidal effect
Summary of the method: as §2

[24] = tested on: VIOTR: Viola tricolor; experiment: Pre-emergence herbicidal effect; details: dosage 320 g/ha
Summary of the method: as §2

[25] = tested on: LOLRI: Lolium rigidum; experiment: Pre-emergence herbicidal effect
Summary of the method: as §2

[26] = tested on: VERPE: Veronica persica; experiment: Pre-emergence herbicidal effect; details: dosage 320 g/ha
Summary of the method: as §2

[27] = tested on: HORMU: Hordeum murinum; experiment: Pre-emergence herbicidal effect; details: pre-emergence
Summary of the method: as §2

[28] = tested on: CYPES; experiment: Pre-emergence herbicidal effect
Summary of the method: as §2

[29] = tested on: AVEFA: Avena fatua; experiment: Post-emergence herbicidal effect
Summary of the method: as §1

Structure (SMILES): Cc1ccc2c(c1)[C@H](Nc1ncc([C@H](C)O)c(N)n1)[C@@H](C)C2 (racemic) [drawing 14, reference compound]
- Herbicidal action against SETVI ([1]; dosage 80 g/ha): 60%
- Herbicidal action against PHBPU ([2]; dosage 80 g/ha): 20%
- Herbicidal action against PHBPU ([2]; dosage 320 g/ha): 80%
- Herbicidal action against POLCO ([3]; dosage 80 g/ha): 60%
- Herbicidal action against POLCO ([3]; dosage 320 g/ha): 60%
- Herbicidal action against ECHCG ([4]; dosage 80 g/ha): 0%
- Herbicidal action against ALOMY ([5]; dosage 80 g/ha): 0%
- Herbicidal action against ALOMY ([5]; dosage 320 g/ha): 70%
- Herbicidal action against ABUTH ([6]; dosage 80 g/ha): 10%
- Herbicidal action against ABUTH ([6]; dosage 320 g/ha): 60%
- Herbicidal action against LOLRI ([7]; dosage 80 g/ha): 30%
- Herbicidal action against LOLRI ([7]; dosage 320 g/ha): 70%
- Herbicidal action against HORMU ([8]; dosage 80 g/ha): 0%
- Herbicidal action against HORMU ([8]; dosage 320 g/ha): 20%

Structure (SMILES): Cc1ccc2c(c1)[C@H](Nc1ncc(C(C)O)c(C)n1)[C@@H](C)C2 (stereo partly drawn) [Example 1.7, 1-(2-{[(1R,2S)-2,6-Dimethyl-2,3-dihydro-1H-inden-1-yl]amino}-4-methylpyrimidin-5-yl)ethanol]
- Herbicidal action against SETVI ([1]; dosage 80 g/ha): 100%
- Herbicidal action against SETVI ([1]; dosage 320 g/ha): 100%
- Herbicidal action against AMARE [9]: 100%
- Herbicidal action against PHBPU ([2]; dosage 80 g/ha): 60%
- Herbicidal action against PHBPU ([2]; dosage 320 g/ha): 100%
- Herbicidal action against POLCO ([3]; dosage 80 g/ha): 80%
- Herbicidal action against POLCO ([3]; dosage 320 g/ha): 80%
- Herbicidal action against MATIN ([10]; dosage 320 g/ha): 90%
- Herbicidal action against ECHCG ([4]; dosage 80 g/ha): 20%
- Herbicidal action against ECHCG ([4]; dosage 320 g/ha): 100%
- Herbicidal action against ALOMY ([5]; dosage 80 g/ha): 80%
- Herbicidal action against ALOMY ([5]; dosage 320 g/ha): 100%
- Herbicidal action against STEME ([11]; dosage 320 g/ha): 100%
- Herbicidal action against ABUTH ([6]; dosage 80 g/ha): 60%
- Herbicidal action against ABUTH ([6]; dosage 320 g/ha): 80%
- Herbicidal action against VIOTR ([12]; dosage 320 g/ha): 90%
- Herbicidal action against LOLRI ([7]; dosage 80 g/ha): 100%
- Herbicidal action against LOLRI ([7]; dosage 320 g/ha): 100%
- Herbicidal action against VERPE [13]: 90%
- Herbicidal action against HORMU ([8]; dosage 80 g/ha): 40%
- Herbicidal action against HORMU ([8]; dosage 320 g/ha): 100%
- Herbicidal action against SETVI ([14]; dosage 320 g/ha): 100%
- Herbicidal action against AMARE ([15]; dosage 320 g/ha): 100%
- Herbicidal action against AVEFA ([16]; dosage 80 g/ha): 70%
- Herbicidal action against AVEFA ([16]; dosage 320 g/ha): 90%
- Herbicidal action against PHBPU ([17]; dosage 80 g/ha): 80%
- Herbicidal action against PHBPU ([17]; dosage 320 g/ha): 80%
- Herbicidal action against POLCO ([18]; dosage 320 g/ha): 100%
- Herbicidal action against MATIN [19]: 100%
- Herbicidal action against ECHCG ([20]; dosage 320 g/ha): 100%
- Herbicidal action against ALOMY ([21]; dosage 320 g/ha): 100%
- Herbicidal action against STEME [22]: 100%
- Herbicidal action against ABUTH ([23]; dosage 80 g/ha): 90%
- Herbicidal action against ABUTH ([23]; dosage 320 g/ha): 100%
- Herbicidal action against VIOTR [24]: 100%
- Herbicidal action against LOLRI ([25]; dosage 320 g/ha): 100%
- Herbicidal action against VERPE [26]: 100%
- Herbicidal action against HORMU ([27]; dosage 320 g/ha): 100%

Structure (SMILES): Cc1ccc2c(c1)[C@H](Nc1ncc(C(C)(C)O)c(N)n1)[C@@H](C)C2 [drawing 3, reference compound]
- Herbicidal action against CYPES ([28]; dosage 80 g/ha): 60%
- Herbicidal action against CYPES ([28]; dosage 320 g/ha): 70%

Structure (SMILES): CC(C)(O)c1cnc(N[C@@H]2CCCc3ccccc32)nc1 [Example 1.8, 2-{2-[(1R)-1,2,3,4-Tetrahydronaphthalen-1-ylamino]pyrimidin-5-yl}propan-2-ol]
- Herbicidal action against SETVI ([1]; dosage 320 g/ha): 100%
- Herbicidal action against AMARE [9]: 100%
- Herbicidal action against AVEFA ([29]; dosage 320 g/ha): 100%
- Herbicidal action against PHBPU ([2]; dosage 320 g/ha): 80%
- Herbicidal action against POLCO ([3]; dosage 320 g/ha): 90%
- Herbicidal action against MATIN ([10]; dosage 320 g/ha): 100%
- Herbicidal action against ECHCG ([4]; dosage 320 g/ha): 100%
- Herbicidal action against ALOMY ([5]; dosage 320 g/ha): 70%
- Herbicidal action against STEME ([11]; dosage 320 g/ha): 100%
- Herbicidal action against ABUTH ([6]; dosage 320 g/ha): 90%
- Herbicidal action against VIOTR ([12]; dosage 320 g/ha): 90%
- Herbicidal action against VERPE [13]: 90%
- Herbicidal action against SETVI ([14]; dosage 320 g/ha): 100%
- Herbicidal action against AMARE ([15]; dosage 320 g/ha): 100%
- Herbicidal action against AVEFA ([16]; dosage 320 g/ha): 100%
- Herbicidal action against CYPES ([28]; dosage 320 g/ha): 70%
- Herbicidal action against PHBPU ([17]; dosage 320 g/ha): 100%
- Herbicidal action against POLCO ([18]; dosage 320 g/ha): 100%
- Herbicidal action against MATIN [19]: 100%
- Herbicidal action against ECHCG ([20]; dosage 320 g/ha): 100%
- Herbicidal action against ALOMY ([21]; dosage 320 g/ha): 100%
- Herbicidal action against STEME [22]: 100%
- Herbicidal action against ABUTH ([23]; dosage 320 g/ha): 100%
- Herbicidal action against VIOTR [24]: 100%
- Herbicidal action against LOLRI ([25]; dosage 320 g/ha): 100%
- Herbicidal action against VERPE [26]: 100%
- Herbicidal action against HORMU ([27]; dosage 320 g/ha): 100%

Structure (SMILES): Cc1ccc2c(c1)[C@H](Nc1ncc(C(C)(C)O)cn1)[C@@H](C)C2 [Example 1.4]
- Herbicidal action against SETVI ([1]; dosage 320 g/ha): 80%
- Herbicidal action against AMARE [9]: 100%
- Herbicidal action against AVEFA ([29]; dosage 80 g/ha): 20%
- Herbicidal action against AVEFA ([29]; dosage 320 g/ha): 50%
- Herbicidal action against PHBPU ([2]; dosage 320 g/ha): 100%
- Herbicidal action against POLCO ([3]; dosage 80 g/ha): 70%
- Herbicidal action against POLCO ([3]; dosage 320 g/ha): 90%
- Herbicidal action against MATIN ([10]; dosage 80 g/ha): 40%
- Herbicidal action against MATIN ([10]; dosage 320 g/ha): 80%
- Herbicidal action against ECHCG ([4]; dosage 80 g/ha): 30%
- Herbicidal action against ECHCG ([4]; dosage 320 g/ha): 90%
- Herbicidal action against ALOMY ([5]; dosage 80 g/ha): 20%
- Herbicidal action against ALOMY ([5]; dosage 320 g/ha): 70%
- Herbicidal action against STEME ([11]; dosage 80 g/ha): 60%
- Herbicidal action against STEME ([11]; dosage 320 g/ha): 90%
- Herbicidal action against ABUTH ([6]; dosage 80 g/ha): 60%
- Herbicidal action against ABUTH ([6]; dosage 320 g/ha): 90%
- Herbicidal action against VIOTR ([12]; dosage 80 g/ha): 90%
- Herbicidal action against LOLRI ([7]; dosage 80 g/ha): 60%
- Herbicidal action against LOLRI ([7]; dosage 320 g/ha): 90%
- Herbicidal action against SETVI ([14]; dosage 80 g/ha): 100%
- Herbicidal action against SETVI ([14]; dosage 320 g/ha): 100%
- Herbicidal action against AMARE ([15]; dosage 80 g/ha): 100%
- Herbicidal action against AMARE ([15]; dosage 320 g/ha): 100%
- Herbicidal action against AVEFA ([16]; dosage 80 g/ha): 80%
- Herbicidal action against AVEFA ([16]; dosage 320 g/ha): 100%
- Herbicidal action against CYPES ([28]; dosage 80 g/ha): 80%
- Herbicidal action against CYPES ([28]; dosage 320 g/ha): 100%
- Herbicidal action against PHBPU ([17]; dosage 80 g/ha): 80%
- Herbicidal action against PHBPU ([17]; dosage 320 g/ha): 100%
- Herbicidal action against POLCO ([18]; dosage 80 g/ha): 100%
- Herbicidal action against POLCO ([18]; dosage 320 g/ha): 100%
- Herbicidal action against MATIN [19]: 100%
- Herbicidal action against ECHCG ([20]; dosage 80 g/ha): 100%
- Herbicidal action against ECHCG ([20]; dosage 320 g/ha): 100%
- Herbicidal action against ALOMY ([21]; dosage 80 g/ha): 90%
- Herbicidal action against ALOMY ([21]; dosage 320 g/ha): 100%
- Herbicidal action against STEME [22]: 100%
- Herbicidal action against ABUTH ([23]; dosage 80 g/ha): 100%
- Herbicidal action against ABUTH ([23]; dosage 320 g/ha): 100%
- Herbicidal action against VIOTR [24]: 100%
- Herbicidal action against LOLRI ([25]; dosage 80 g/ha): 100%
- Herbicidal action against LOLRI ([25]; dosage 320 g/ha): 100%
- Herbicidal action against VERPE [26]: 100%
- Herbicidal action against HORMU ([27]; dosage 80 g/ha): 90%
- Herbicidal action against HORMU ([27]; dosage 320 g/ha): 100%
